Laboratory results reported in ChEMBL document CHEMBL3232945 (Eur J Med Chem, 2014).

Experiments:
[1] = tested on: Rattus norvegicus; experiment: Toxicity in […] normotensive Wistar rat assessed as mean arterial pressure at 40 mg/kg, ip after 60 mins (reference value: 95.07 +/- 1.973 mmHg); assay type: organism-based, Artery; set-up: dose 40 mg/kg, route intraperitoneal; conditions: in vivo, 1 h
[2] = tested on: Rattus norvegicus; experiment: Antihypertensive activity in Wistar rat assessed as mean arterial pressure at 40 mg/kg, ip measured immediately at 0 min (reference value: 194.08 +/- 1.962 mmHg); assay type: functional, Artery; conditions: route intraperitoneal
[3] = tested on: Rattus norvegicus; experiment: Antihypertensive activity in Wistar rat assessed as mean arterial pressure at 40 mg/kg, ip after 15 mins (reference value: 195.68 +/- 1.623 mmHg); assay type: functional, Artery; conditions: route intraperitoneal
[4] = tested on: Rattus norvegicus; experiment: Antihypertensive activity in Wistar rat assessed as mean arterial pressure at 40 mg/kg, ip after 30 mins (reference value: 194.72 +/- 1.002 mmHg); assay type: functional, Artery; conditions: route intraperitoneal
[5] = tested on: Rattus norvegicus; experiment: Antihypertensive activity in Wistar rat assessed as mean arterial pressure at 40 mg/kg, ip after 45 mins (reference value: 193.96 +/- 0.865 mmHg); assay type: functional, Artery; conditions: route intraperitoneal
[6] = tested on: Rattus norvegicus; experiment: Antihypertensive activity in Wistar rat assessed as mean arterial pressure at 40 mg/kg, ip after 60 mins (reference value: 195.11 +/- 0.531 mmHg); assay type: functional, Artery; conditions: route intraperitoneal
[7] = tested on: Rattus norvegicus; experiment: Toxicity in anesthetized-normotensive Wistar rat assessed as heart rate at 40 mg/kg, ip measured immediately at 0 min (reference value: 316.62 +/- 9.643 bpm); assay type: organism-based; set-up: dose 40 mg/kg, route intraperitoneal; conditions: in vivo, 0 h
[8] = tested on: Rattus norvegicus; experiment: Toxicity in anesthetized-normotensive Wistar rat assessed as heart rate at 40 mg/kg, ip after 15 mins (reference value: 313.93 +/- 9.912 bpm); assay type: organism-based; set-up: dose 40 mg/kg, route intraperitoneal; conditions: in vivo, 0.25 h
[9] = tested on: Rattus norvegicus; experiment: Toxicity in anesthetized-normotensive Wistar rat assessed as heart rate at 40 mg/kg, ip after 30 mins (reference value: 317.68 +/- 7.631 bpm); assay type: organism-based; set-up: dose 40 mg/kg, route intraperitoneal; conditions: in vivo, 0.5 h
[10] = tested on: Rattus norvegicus; experiment: Toxicity in anesthetized-normotensive Wistar rat assessed as heart rate at 40 mg/kg, ip after 45 mins (reference value: 316.82 +/- 8.452 bpm); assay type: organism-based; set-up: dose 40 mg/kg, route intraperitoneal; conditions: in vivo, 0.75 h
[11] = tested on: Rattus norvegicus; experiment: Toxicity in anesthetized-normotensive Wistar rat assessed as heart rate at 40 mg/kg, ip after 60 mins (reference value: 314.96 +/- 9.442 bpm); assay type: organism-based; set-up: dose 40 mg/kg, route intraperitoneal; conditions: in vivo, 1 h
[12] = tested on: Rattus norvegicus; experiment: Antiarrhythmic activity in barium chloride-induced Wistar rat assessed as increase in appearance time of arrhythmia at 40 mg/kg, ip administered 60 mins before barium chloride challenge (reference value: 129.4 +/- 4.373 sec); assay type: functional, Heart; conditions: route intraperitoneal
[13] = tested on: Rattus norvegicus; experiment: Antiarrhythmic activity in barium chloride-induced Wistar rat assessed as increase in mortality time at 40 mg/kg, ip administered 60 mins before barium chloride challenge (reference value: 682.8 +/- 9.656 secs); assay type: functional, Heart; conditions: route intraperitoneal
[14] = tested on: Rattus norvegicus; experiment: Toxicity in anaesthetized-Wistar rat assessed as P-Q ECG interval at 40 mg/kg, ip measured immediately at 0 min (reference value: 52.4 +/- 0.927 ms); assay type: organism-based; set-up: dose 40 mg/kg, route intraperitoneal; conditions: in vivo, 0 h
[15] = tested on: Rattus norvegicus; experiment: Toxicity in anaesthetized-Wistar rat assessed as QRS ECG interval at 40 mg/kg, ip measured immediately at 0 min (reference value: 19.6 +/- 1.142 ms); assay type: organism-based; set-up: dose 40 mg/kg, route intraperitoneal; conditions: in vivo, 0 h
[16] = tested on: Rattus norvegicus; experiment: Toxicity in anaesthetized-Wistar rat assessed as Q-T ECG interval at 40 mg/kg, ip measured immediately at 0 min (reference value: 78.8 +/- 1.030 ms); assay type: organism-based; set-up: dose 40 mg/kg, route intraperitoneal; conditions: in vivo, 0 h
[17] = tested on: Rattus norvegicus; experiment: Toxicity in anaesthetized-Wistar rat assessed as P-Q ECG interval at 40 mg/kg, ip after 15 mins (reference value: 52.2 +/- 1.158 ms); assay type: organism-based; set-up: dose 40 mg/kg, route intraperitoneal; conditions: in vivo, 0.25 h
[18] = tested on: Rattus norvegicus; experiment: Toxicity in anaesthetized-Wistar rat assessed as QRS ECG interval at 40 mg/kg, ip after 15 mins (reference value: 18.9 +/- 1.563 ms); assay type: organism-based; set-up: dose 40 mg/kg, route intraperitoneal; conditions: in vivo, 0.25 h
[19] = tested on: Rattus norvegicus; experiment: Toxicity in anaesthetized-Wistar rat assessed as Q-T ECG interval at 40 mg/kg, ip after 15 mins (reference value: 79.4 +/- 1.270 ms); assay type: organism-based; set-up: dose 40 mg/kg, route intraperitoneal; conditions: in vivo, 0.25 h
[20] = tested on: Rattus norvegicus; experiment: Toxicity in anaesthetized-Wistar rat assessed as P-Q ECG interval at 40 mg/kg, ip after 30 mins (reference value: […] +/- 0.927 ms); assay type: organism-based; set-up: dose 40 mg/kg, route intraperitoneal; conditions: in vivo, 0.5 h
[21] = tested on: Rattus norvegicus; experiment: Toxicity in anaesthetized-Wistar rat assessed as QRS ECG interval at 40 mg/kg, ip after 30 mins (reference value: 19.9 +/- 1.393 ms); assay type: organism-based; set-up: dose 40 mg/kg, route intraperitoneal; conditions: in vivo, 0.5 h
[22] = tested on: Rattus norvegicus; experiment: Toxicity in anaesthetized-Wistar rat assessed as Q-T ECG interval at 40 mg/kg, ip after 30 mins (reference value: 78.3 +/- 0.860 ms); assay type: organism-based; set-up: dose 40 mg/kg, route intraperitoneal; conditions: in vivo, 0.5 h
[23] = tested on: Rattus norvegicus; experiment: Toxicity in anaesthetized-Wistar rat assessed as P-Q ECG interval at 40 mg/kg, ip after 45 mins (reference value: 52.5 +/- 0.780 ms); assay type: organism-based; set-up: dose 40 mg/kg, route intraperitoneal; conditions: in vivo, 0.75 h
[24] = tested on: Rattus norvegicus; experiment: Toxicity in anaesthetized-Wistar rat assessed as QRS ECG interval at 40 mg/kg, ip after 45 mins (reference value: 20.2 +/- 1.348 ms); assay type: organism-based; set-up: dose 40 mg/kg, route intraperitoneal; conditions: in vivo, 0.75 h
[25] = tested on: Rattus norvegicus; experiment: Toxicity in anaesthetized-Wistar rat assessed as P-Q ECG interval at 40 mg/kg, ip after 60 mins (reference value: […] +/- 0.924 ms); assay type: organism-based; set-up: dose 40 mg/kg, route intraperitoneal; conditions: in vivo, 1 h
[26] = tested on: Rattus norvegicus; experiment: Toxicity in anaesthetized-Wistar rat assessed as QRS ECG interval at 40 mg/kg, ip after 60 mins (reference value: 19.3 +/- 0.873 ms); assay type: organism-based; set-up: dose 40 mg/kg, route intraperitoneal; conditions: in vivo, 1 h
[27] = tested on: Rattus norvegicus; experiment: Toxicity in anaesthetized-Wistar rat assessed as Q-T ECG interval at 40 mg/kg, ip after 60 mins (reference value: 79.7 +/- 0.965 ms); assay type: organism-based; set-up: dose 40 mg/kg, route intraperitoneal; conditions: in vivo, 1 h
[28] = tested on: Rattus norvegicus; experiment: Toxicity in […] normotensive Wistar rat assessed as mean arterial pressure at 40 mg/kg, ip measured immediately at 0 min (reference value: 94.21 +/- 2.065 mmHg); assay type: organism-based, Artery; set-up: dose 40 mg/kg, route intraperitoneal; conditions: in vivo, 0 h
[29] = tested on: Rattus norvegicus; experiment: Toxicity in […] normotensive Wistar rat assessed as mean arterial pressure at 40 mg/kg, ip after 15 mins (reference value: 93.81 +/- 1.543 mmHg); assay type: organism-based, Artery; set-up: dose 40 mg/kg, route intraperitoneal; conditions: in vivo, 0.25 h
[30] = tested on: Rattus norvegicus; experiment: Toxicity in […] normotensive Wistar rat assessed as mean arterial pressure at 40 mg/kg, ip after 30 mins (reference value: 94.68 +/- 1.213 mmHg); assay type: organism-based, Artery; set-up: dose 40 mg/kg, route intraperitoneal; conditions: in vivo, 0.5 h
[31] = tested on: Rattus norvegicus; experiment: Toxicity in […] normotensive Wistar rat assessed as mean arterial pressure at 40 mg/kg, ip after 45 mins (reference value: 94.83 +/- 0.943 mmHg); assay type: organism-based, Artery; set-up: dose 40 mg/kg, route intraperitoneal; conditions: in vivo, 0.75 h

Row | SMILES | Activity [1] | Activity [2] | Activity [3] | Activity [4] | Activity [5] | Activity [6] | Activity [7] | Activity [8] | Activity [9] | Activity [10] | Activity [11] | Time [12] | Time [13] | Activity [14] | Activity [15] | Activity [16] | Activity [17] | Activity [18] | Activity [19] | Activity [20] | further results
1 | O=C1/C(=C\c2ccccc2)S/C(=N\c2ccccc2)N1CC(O)CN1CCN(Cc2ccccc2)CC1 (centres undefined) | 85.44 mmHg | 194.51 mmHg | 179.02 mmHg | 160.63 mmHg | 166.41 mmHg | 179.51 mmHg | 333.62 bpm | 312.34 bpm | 283.52 bpm | 298.21 bpm | 312.21 bpm | 296.9 s | 986.7 s | 49.8 ms | 23.4 min | 74.3 min | 50.4 min | 23.2 min | 74.9 min | 50.9 min | Activity [21]: 23.8 ms; Activity [22]: 73.2 min; Activity [23]: 51.3 min; Activity [24]: 23.1 min; Activity [25]: 52.7 min; Activity [26]: 23.7 min; Activity [27]: 74.2 ms; Activity [28]: 95.09 mmHg; Activity [29]: 92.1 mmHg; Activity [30]: 78.19 mmHg; Activity [31]: 72.57 mmHg
2 | O=C1/C(=C\c2ccccc2)S/C(=N\c2ccccc2)N1CC(O)CN1CCCC1 (centres undefined) | 73.12 mmHg | 196.1 mmHg | 165.01 mmHg | 148.37 mmHg | 149.39 mmHg | 177.56 mmHg | 318.73 bpm | 298.54 bpm | 256.85 bpm | 287.15 bpm | 309.32 bpm | 285.3 s | 918.8 s | 50.2 ms | 20.5 min | 70.6 min | 51.6 min | 21.3 min | 71.2 min | 54.3 min | Activity [21]: 22.5 ms; Activity [22]: 72.6 min; Activity [23]: 53.3 min; Activity [24]: 21.1 min; Activity [25]: 52.8 min; Activity [26]: 20.6 min; Activity [27]: 70.9 ms; Activity [28]: 93.02 mmHg; Activity [29]: 84.63 mmHg; Activity [30]: 74.76 mmHg; Activity [31]: 69.69 mmHg
3 | O=C1/C(=C\c2ccccc2)S/C(=N\c2ccccc2)N1CC(O)CN1CCOCC1 (centres undefined) | 71.43 mmHg | 195.43 mmHg | 175.31 mmHg | 168.61 mmHg | 131.61 mmHg | 154.93 mmHg | 315.15 bpm | 304.65 bpm | 293.54 bpm | 294.42 bpm | 308.42 bpm | 313.5 s | 1089.8 s | 49.9 ms | 23.4 min | 74.3 min | 50.2 min | 23.2 min | 74.9 min | 50.9 min | Activity [21]: 23.8 ms; Activity [22]: 73.2 min; Activity [23]: 51.3 min; Activity [24]: 23.1 min; Activity [25]: 52.7 min; Activity [26]: 23.7 min; Activity [27]: 74.2 ms; Activity [28]: 92.99 mmHg; Activity [29]: 82.61 mmHg; Activity [30]: 73.87 mmHg; Activity [31]: 62.69 mmHg
4 | CCCCN(CCCC)CC(O)CN1C(=O)/C(=C\c2ccccc2)S/C1=N\c1ccccc1 (centres undefined) | 90.59 mmHg | 195.08 mmHg | 171.43 mmHg | 159.69 mmHg | 163.37 mmHg | 182.09 mmHg | 309.12 bpm | 297.25 bpm | 276.46 bpm | 283.5 bpm | 301.69 bpm | 265.4 s | 786.2 s | 53.5 ms | 20.4 min | 67 min | 55 min | 21.6 min | 67.9 min | 56.1 min | Activity [21]: 22 ms; Activity [22]: 68.9 min; Activity [23]: 57.3 min; Activity [24]: 22.4 min; Activity [25]: 54.3 min; Activity [26]: 22.6 min; Activity [27]: 66.4 ms; Activity [28]: 95.56 mmHg; Activity [29]: 84.43 mmHg; Activity [30]: 77.87 mmHg; Activity [31]: 80.16 mmHg
